Test results: patent publication US20090099195A1 (ASTRAZENECA AB, priority 2007, published 2009)

How the values were obtained:
[1] = molecular target: T1, rat P2X2/3 (rat P2X3 co-expressed with rat P2X2) (Rattus norvegicus, UniProt P49653+P49654); test: rat P2X2/3 FLIPR calcium (Fluo-4) antagonist assay; details: Rat P2X2/3 FLIPR Mean IC50 (nM), HEK-TREX cells, tetracycline-induced rat P2X3 with constitutive rat P2X2; agonist 500 nM α,β-methylene-ATP
T1 sequence (P49654 1-397): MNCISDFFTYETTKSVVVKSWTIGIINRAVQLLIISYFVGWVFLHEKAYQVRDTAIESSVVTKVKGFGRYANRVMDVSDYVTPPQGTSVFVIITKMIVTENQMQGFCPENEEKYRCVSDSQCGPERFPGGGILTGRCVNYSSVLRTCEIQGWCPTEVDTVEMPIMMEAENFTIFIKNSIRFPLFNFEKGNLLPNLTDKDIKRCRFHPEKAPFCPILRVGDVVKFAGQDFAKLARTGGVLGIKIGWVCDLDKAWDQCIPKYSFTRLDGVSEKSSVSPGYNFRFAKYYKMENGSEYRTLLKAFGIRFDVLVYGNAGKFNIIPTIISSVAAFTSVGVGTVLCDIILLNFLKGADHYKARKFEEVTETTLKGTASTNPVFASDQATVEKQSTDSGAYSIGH
T1 sequence (P49653 1-472): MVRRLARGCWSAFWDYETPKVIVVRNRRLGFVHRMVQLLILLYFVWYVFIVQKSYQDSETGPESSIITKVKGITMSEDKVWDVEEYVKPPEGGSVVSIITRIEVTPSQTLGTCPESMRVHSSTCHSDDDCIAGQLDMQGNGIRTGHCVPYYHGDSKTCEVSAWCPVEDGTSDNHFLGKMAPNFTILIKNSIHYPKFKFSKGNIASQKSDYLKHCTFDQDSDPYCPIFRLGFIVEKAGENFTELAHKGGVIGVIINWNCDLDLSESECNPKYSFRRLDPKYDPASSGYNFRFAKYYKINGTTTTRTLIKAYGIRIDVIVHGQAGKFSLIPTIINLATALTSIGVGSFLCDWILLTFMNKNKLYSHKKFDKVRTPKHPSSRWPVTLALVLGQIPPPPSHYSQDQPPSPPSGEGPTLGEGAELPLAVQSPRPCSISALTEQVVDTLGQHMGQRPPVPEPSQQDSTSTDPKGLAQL
Description: The assay used a calcium indicator dye (Fluo-4) that emits fluorescence, the intensity of which is related to the concentration of calcium that entered the cell when P2X3 was activated and the channel opened. Activation of hP2X3 or rat P2X3 and rat P2X2/3 (from the coexpression of rat P2X3 and rat P2×2) is elicited the by P2X3 agonist α,β methylene-ATP (Sigma M6517), and the resulting fluorescence is measured with a FLIPR II™ instrument (Molecular Devices). Compounds are tested for their ability to inhibit the agonist-induced fluorescent signal.
For the rat P2X2/3 HEK-TREX cells, induction of the rat P2X3 expression is used to generate the rat P2X2/3 channels in HEK-TREX cells and performed by addition of 1 μg/mL tetracycline (Invitrogen) 24 h prior to compounds testing to the HEK-TREX expressing the rat P2X2 constitutively. On the day of the experiment, the cells and test compounds are prepared as follows. […] After preparing the compounds, the medium is removed from the cell plates by inversion. A loading solution of 30 μL assay buffer containing 4 μM of the calcium indicator dye FLUO-4 AM (Molecular Probes F14202) is added to each well using a Multidrop (Labsystems). […] The incubation is terminated by washing the cells four times in assay buffer using a Skatron Embla (Molecular Devices), and 25 μL of assay buffer was left in each well. Cell plates are then transferred to the FLIPR. Experiments are initiated by measuring a baseline fluorescence reading for 10 seconds, followed by the addition of 12.5 μL of cpds and data sampling for a total 280 seconds. The experiments are terminated by addition of 12.5 μL of a reference agonist (500 nM α,β-methylene-ATP) or buffer, producing a final assay volume of 50 μL followed by data sampling for an additional 280 seconds.
In P2X3 antagonist experiments (human and rat assays) data are analysed as normalised maximal peak fluorescence monitored following agonist addition and calculated as percent of relative fluorescent counts from control agonist. The dose-response antagonist inhibition curves are analyzed in a 4-parameter sigmoidal fit using a non-linear curve-fitting program (XLfit version 5.0.6, ID Business Solutions Limited, Guildford, UK).

[2] = molecular target: T2, hP2X3 (human Purinergic P2X receptors subtype 3), clone B (Homo sapiens, UniProt P56373); test: hP2X3 FLIPR calcium (Fluo-4) antagonist assay, clone B; details: Human P2X3 FLIPR Clone B IC50 (nM), RLE cells expressing hP2X3 clone B (NM_002559); agonist 500 nM α,β-methylene-ATP
T2 sequence (P56373 1-397): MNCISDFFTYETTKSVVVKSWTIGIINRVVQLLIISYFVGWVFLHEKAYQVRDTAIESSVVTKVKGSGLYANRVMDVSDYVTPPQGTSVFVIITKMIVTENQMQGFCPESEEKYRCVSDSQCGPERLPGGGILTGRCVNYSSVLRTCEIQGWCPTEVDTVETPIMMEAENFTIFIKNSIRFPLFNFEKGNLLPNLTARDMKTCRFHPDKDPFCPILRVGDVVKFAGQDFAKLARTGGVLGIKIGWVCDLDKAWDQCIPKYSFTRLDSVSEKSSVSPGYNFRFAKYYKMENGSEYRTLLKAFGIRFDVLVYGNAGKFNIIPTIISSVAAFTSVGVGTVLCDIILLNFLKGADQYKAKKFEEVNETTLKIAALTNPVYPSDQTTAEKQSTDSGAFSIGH

Row | SMILES | IC50 [1] | IC50 [2]
1 | CC(=O)N1CCN(c2nc(NC(C)(C)Cc3ccc(C)cc3)c3c(n2)C(=O)N(C(C)C)C3)CC1 [Example 164, 2-(4-acetylpiperazin-1-yl)-6-isopropyl-4-(2-methyl-1-p-tolylpropan-2-ylamino)-5H-pyrrolo[3,4-d]pyrimidin-7(6H)-one] | 2910 nM | 56 nM
2 | CC(=O)N1CCN(c2nc3c(c(N4CCCCC4Cc4ccc(F)cc4)n2)CN(C(C)C)C3=O)CC1 (centres unmarked) [Example 268, 4-(4-acetylpiperazin-1-yl)-2-[2-[(4-fluorophenyl)methyl]-1-piperidyl]-8-propan-2-yl-3,5,8-triazabicyclo[4.3.0]nona-1,3,5-trien-7-one] | 12400 nM | 500 nM
3 | CC(=O)N1CCN(c2nc(N[C@H](C)c3ccc4ncccc4c3)c3c(n2)C(=O)N(C(C)C)C3)CC1 [Example 243, (R)-2-(4-acetylpiperazin-1-yl)-6-isopropyl-4-(1-(quinolin-6-yl)ethylamino)-5H-pyrrolo[3,4-d]pyrimidin-7(6H)-one] | 1240 nM | 36 nM
4 | COc1ccc(CC2CCCN2c2nc(N3CCN(C(C)=O)CC3)nc3c2CN(C(C)C)C3=O)cc1 (single isomer, unassigned) [Example 287, 2-(4-acetylpiperazin-1-yl)-6-isopropyl-4-[2-[(4-methoxyphenyl)methyl]pyrrolidin-1-yl]-5H-pyrrolo[3,4-d]pyrimidin-7-one] | 1500 nM | 53 nM
5 | CC(=O)N1CCN(c2nc3c(c(N4CCCC4c4cnc5ccccc5c4)n2)CN(C(C)C)C3=O)CC1 (centres unmarked) [Example 274, 4-(4-acetylpiperazin-1-yl)-8-propan-2-yl-2-(2-quinolin-3-ylpyrrolidin-1-yl)-3,5,8-triazabicyclo[4.3.0]nona-1,3,5-trien-7-one] | 768 nM | 170 nM
6 | CCC(C)N1Cc2c(NCc3cnc4ccccc4c3)nc(N3CCN(C(C)=O)CC3)nc2C1=O (single isomer, unassigned; (+)) [Example 308, (+)-2-(4-acetylpiperazin-1-yl)-4-(3-quinolylmethylamino)-6-sec-butyl-5H-pyrrolo[3,4-d]pyrimidin-7-one] | 10300 nM | 20 nM
7 | COc1cc(C(F)(F)F)ccc1CNc1nc(N2CCN(C(C)=O)CC2)nc2c1CN(C(C)C)C2=O [Example 225, 2-(4-acetylpiperazin-1-yl)-6-isopropyl-4-(2-methoxy-4-(trifluoromethyl)benzylamino)-5H-pyrrolo[3,4-d]pyrimidin-7(6H)-one] | 60700 nM | 290 nM
8 | CC(=O)N1CCN(c2nc(N[C@H](C)c3ccc(OC(F)F)cc3)c3c(n2)C(=O)N(C(C)C)C3)CC1 [Example 114, 2-(4-acetylpiperazin-1-yl)-4-({(1R)-1-[4-(difluoromethoxy)phenyl]ethyl}amino)-6-isopropyl-5,6-dihydro-7H-pyrrolo[3,4-d]pyrimidin-7-one] | 3300 nM | 71 nM
9 | CC(=O)N1CCN(c2nc3c(c(N4CCCC4c4ccc5ncccc5c4)n2)CN(C(C)C)C3=O)CC1 (centres unmarked) [Example 281, 4-(4-acetylpiperazin-1-yl)-8-propan-2-yl-2-(2-quinolin-6-ylpyrrolidin-1-yl)-3,5,8-triazabicyclo[4.3.0]nona-1,3,5-trien-7-one] | 11400 nM | 140 nM
10 | CC(=O)N1CCN(c2nc3c(c(N4CCC[C@@H]4C(=O)OCc4ccccc4)n2)CN(C(C)C)C3=O)CC1 [Example 265, benzyl (2R)-1-[4-(4-acetylpiperazin-1-yl)-7-oxo-8-propan-2-yl-3,5,8-triazabicyclo[4.3.0]nona-1,3,5-trien-2-yl]pyrrolidine-2-carboxylate] | 15700 nM | 850 nM
11 | CC(=O)N1CCN(c2nc(NCc3cc4ccccc4c(N(C)C)n3)c3c(n2)C(=O)N(C(C)C)C3)CC1 [Example 252, 2-(4-acetylpiperazin-1-yl)-4-((1-(dimethylamino)isoquinolin-3-yl)methylamino)-6-isopropyl-5H-pyrrolo[3,4-d]pyrimidin-7(6H)-one] | 2110 nM | 87 nM
12 | CCC(C)N1Cc2c(NCc3cnn(-c4ccccc4)c3)nc(N3CCN(C(C)=O)CC3)nc2C1=O (single isomer, unassigned; (-)) [Example 307, (−)-4-(4-acetylpiperazin-1-yl)-8-butan-2-yl-2-[(1-phenylpyrazol-4-yl)methylamino]-3,5,8-triazabicyclo[4.3.0]nona-1,3,5-trien-7-one] | 12000 nM | 150 nM
13 | CC(=O)N1CCN(c2nc(NCc3cncc4ccccc34)c3c(n2)C(=O)N(C(C)C)C3)CC1 [Example 229, 2-(4-acetylpiperazin-1-yl)-6-isopropyl-4-(isoquinolin-4-ylmethylamino)-5H-pyrrolo[3,4-d]pyrimidin-7(6H)-one] | 14600 nM | 120 nM
14 | CCN(Cc1cc2ccccc2cn1)c1nc(N2CCN(C(C)=O)CC2)nc2c1CN(C(C)C)C2=O [Example 245, 2-(4-acetylpiperazin-1-yl)-4-(ethyl(isoquinolin-3-ylmethyl)amino)-6-isopropyl-5H-pyrrolo[3,4-d]pyrimidin-7(6H)-one] | 2160 nM | 28 nM
15 | CC(=O)N1CCN(c2nc(N[C@H](C)c3ccc(I)cc3)c3c(n2)C(=O)N(C(C)C)C3)CC1 [Example 165, (R)-2-(4-acetylpiperazin-1-yl)-4-(1-(4-iodophenyl)ethylamino)-6-isopropyl-5H-pyrrolo[3,4-d]pyrimidin-7(6H)-one] | 11100 nM | 43 nM
16 | CC(=O)N1CCN(c2nc3c(c(N4CCCC4Cc4ccc(C)cc4)n2)CN(C(C)C)C3=O)CC1 (centres unmarked) [Example 47, 2-(4-acetylpiperazin-1-yl)-6-isopropyl-4-[2-(4-methylbenzyl)pyrrolidin-1-yl]-5,6-dihydro-7H-pyrrolo[3,4-d]pyrimidin-7-one] | 2680 nM | 130 nM
17 | CC(=O)N1CCN(c2nc3c(c(N4CCCC4c4cc(C)cc(C)c4)n2)CN(C(C)C)C3=O)CC1 (centres unmarked) [Example 270, 4-(4-acetylpiperazin-1-yl)-2-[2-(3,5-dimethylphenyl)pyrrolidin-1-yl]-8-propan-2-yl-3,5,8-triazabicyclo[4.3.0]nona-2,4,10-trien-7-one] | 9910 nM | 340 nM
18 | CC(=O)N1CCN(c2nc(NC(C)(C)Cc3ccc(F)cc3)c3c(n2)C(=O)N(C(C)C)C3)CC1 [Example 14, 2-(4-acetylpiperazin-1-yl)-4-{[2-(4-fluorophenyl)-1,1-dimethylethyl]amino}-6-isopropyl-5,6-dihydro-7H-pyrrolo[3,4-d]pyrimidin-7-one] | 18500 nM | 110 nM
19 | COc1cccc(C2CCCN2c2nc(N3CCN(C(C)=O)CC3)nc3c2CN(C(C)C)C3=O)c1 (centres unmarked) [Example 131, 2-(4-Acetylpiperazin-1-yl)-6-isopropyl-4-(2-(3-methoxyphenyl)pyrrolidin-1-yl)-5H-pyrrolo[3,4-d]pyrimidin-7(6H)-one] | 40000 nM | 6000 nM
20 | CC(=O)N1CCN(c2nc(NCc3cc(-c4ccccc4)no3)c3c(n2)C(=O)N(C(C)C)C3)CC1 [Example 147, 4-(4-acetylpiperazin-1-yl)-2-[(3-phenyl-1,2-oxazol-5-yl)methylamino]-8-propan-2-yl-3,5,8-triazabicyclo[4.3.0]nona-1,3,5-trien-7-one] | 1230 nM | 41 nM
21 | CC(=O)N1CCN(c2nc(N[C@H](C)c3cccc(C(F)(F)F)c3)c3c(n2)C(=O)N(C(C)C)C3)CC1 [Example 230, (R)-2-(4-acetylpiperazin-1-yl)-6-isopropyl-4-(1-(3-(trifluoromethyl)phenyl)ethylamino)-5H-pyrrolo[3,4-d]pyrimidin-7(6H)-one] | 7380 nM | 87 nM
22 | CC(=O)N1CCN(c2nc(NCc3cc(-c4ccccc4)on3)c3c(n2)C(=O)N(C(C)C)C3)CC1 [Example 144, 4-(4-acetylpiperazin-1-yl)-2-[(5-phenyl-1,2-oxazol-3-yl)methylamino]-8-propan-2-yl-3,5,8-triazabicyclo[4.3.0]nona-1,3,5-trien-7-one] | 4800 nM | 45 nM
